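Where inhibition never reached the appropriate level, the endpoint shown equals the highest concentration tested. Otherwise, values were interpolated linearly from a five-concentration, 48-hour dose response in 96-well plates. The concentration for full growth arrest is given as TGI.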
Tests used:
Test in all cases: DTP human tumour cell line panel, 48 h
[1] = tested on: SNB-75 CNS
[2] = tested on: 786-0 renal
[3] = tested on: SF-539 CNS
[4] = tested on: SK-MEL-2 melanoma
[5] = tested on: UACC-62 melanoma
[6] = tested on: M14 melanoma
[7] = tested on: SW-620 colon
[8] = tested on: T-47D breast
[9] = tested on: NCI-H226 lung
[10] = tested on: LOX IMVI melanoma
[11] = tested on: NCI-H23 lung
[12] = tested on: MDA-N
[13] = tested on: OVCAR-3 ovarian
[14] = tested on: OVCAR-8 ovarian
[15] = tested on: HOP-62 NSCLC
[16] = tested on: RXF 393 renal
[17] = tested on: UACC-257 melanoma
[18] = tested on: PC-3 prostate
[19] = tested on: MOLT-4 leukemia
[20] = tested on: NCI-H460 lung
[21] = tested on: K-562 leukemia
[22] = tested on: SK-OV-3 ovarian
[23] = tested on: A498 renal
[24] = tested on: SF-295 CNS
[25] = tested on: NCI/ADR-RES ovarian
[26] = tested on: DU-145 prostate
[27] = tested on: HCT-116 colon
[28] = tested on: CCRF-CEM leukemia
[29] = tested on: MDA-MB-231 breast
[30] = tested on: BT-549 breast
[31] = tested on: HS 578T breast
[32] = tested on: HCT-15 colon
[33] = tested on: A549 NSCLC
[34] = tested on: HT29 colon
[35] = tested on: SK-MEL-5 melanoma
[36] = tested on: RPMI-8226 leukemia
[37] = tested on: MCF7 breast
[38] = tested on: IGROV1 ovarian
[39] = tested on: TK-10 renal
[40] = tested on: U251 CNS
[41] = tested on: SNB-19 CNS
[42] = tested on: UO-31 renal
[43] = tested on: SR leukemia
[44] = tested on: KM12 colon
[45] = tested on: OVCAR-4 ovarian
[46] = tested on: HOP-92 NSCLC
[47] = tested on: SK-MEL-28 melanoma
[48] = tested on: CAKI-1 renal
[49] = tested on: SF-268 CNS
[50] = tested on: HL-60(TB) leukemia
[51] = tested on: MDA-MB-435
[52] = tested on: COLO 205 colon
[53] = tested on: SN12C renal
[54] = tested on: MALME-3M melanoma
[55] = tested on: ACHN renal
[56] = tested on: OVCAR-5 ovarian
[57] = tested on: EKVX NSCLC
[58] = tested on: HCC-2998 colon
[59] = tested on: NCI-H522 lung

Measured: TGI

COC(=O)C1=CS/C(=C2\S[C@@H]3[C@H](S2)[C@H]2C=C[C@@H]3C2)S1
32.5 µM: [3]
92.6 µM: [34]
18.5 µM: [21]
5.09 µM: [51]
17.9 µM: [24]
47.8 µM: [25]
57.9 µM: [50]
not listed: [55] | [56] | [57] | [58] | [59]
> 100 µM: all other assays above

CC1CCCCNC1=S (centres undefined)
not listed: [2] | [25] | [27] | [36] | [45] | [48] | [52] | [58] | [59]
> 10 µM: all other assays above

CCc1cc(Cc2cc(CC)c(NC(=O)C(=O)CC(=O)c3sc(-c4cccnc4)nc3C)c(CC)c2)cc(CC)c1NC(=O)C(=O)CC(=O)c1sc(-c2cccnc2)nc1C
not listed: [15] | [39] | [43] | [48]
> 100 µM: all other assays above

N#CCCC(CCC#N)(CCC#N)NO
46.1 µM: [59]
not listed: [10] | [13] | [15] | [19] | [23] | [28] | [45] | [47] | [58]
> 100 µM: all other assays above

— PubChem BioAssay (NCI)
